Where a name gives a salt, the structure may show the parent alone. Read-outs that look alike come from different tables or passages of the source.
Assays:
[1] = biological target: PI3Kγ (p110γ) Recombinant Human Protein (Homo sapiens (Human), UniProt P48736); assay: PI3K-γ scintillation proximity assay; format: biochemical; settings: 20 μM PIP2, 2 μM ATP, 13 nM PI3Kγ, 120 min, room temperature
Procedure, shortened: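 Radiometric SPA in 20 mM MOPS pH 6.7, 10 mM MgCl2, 5 mM DTT, 0.03% CHAPS, 2% DMSO. Stopped with EDTA and WGA SPA beads for scintillation counting. IC50 fitted from % solvent-control activity versus log concentration.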

[2] = biological target: PI3Kδ (p110δ/p85α) Recombinant Human Protein (Homo sapiens (Human), UniProt O00329); assay: PI3Kδ scintillation proximity assay; format: biochemical; settings: 20 μM PIP2, 2 μM ATP, 3.4 nM PI3Kδ, 120 min, room temperature
Chain of PI3Kδ (p110δ/p85α) Recombinant Human Protein (O00329 whole entry): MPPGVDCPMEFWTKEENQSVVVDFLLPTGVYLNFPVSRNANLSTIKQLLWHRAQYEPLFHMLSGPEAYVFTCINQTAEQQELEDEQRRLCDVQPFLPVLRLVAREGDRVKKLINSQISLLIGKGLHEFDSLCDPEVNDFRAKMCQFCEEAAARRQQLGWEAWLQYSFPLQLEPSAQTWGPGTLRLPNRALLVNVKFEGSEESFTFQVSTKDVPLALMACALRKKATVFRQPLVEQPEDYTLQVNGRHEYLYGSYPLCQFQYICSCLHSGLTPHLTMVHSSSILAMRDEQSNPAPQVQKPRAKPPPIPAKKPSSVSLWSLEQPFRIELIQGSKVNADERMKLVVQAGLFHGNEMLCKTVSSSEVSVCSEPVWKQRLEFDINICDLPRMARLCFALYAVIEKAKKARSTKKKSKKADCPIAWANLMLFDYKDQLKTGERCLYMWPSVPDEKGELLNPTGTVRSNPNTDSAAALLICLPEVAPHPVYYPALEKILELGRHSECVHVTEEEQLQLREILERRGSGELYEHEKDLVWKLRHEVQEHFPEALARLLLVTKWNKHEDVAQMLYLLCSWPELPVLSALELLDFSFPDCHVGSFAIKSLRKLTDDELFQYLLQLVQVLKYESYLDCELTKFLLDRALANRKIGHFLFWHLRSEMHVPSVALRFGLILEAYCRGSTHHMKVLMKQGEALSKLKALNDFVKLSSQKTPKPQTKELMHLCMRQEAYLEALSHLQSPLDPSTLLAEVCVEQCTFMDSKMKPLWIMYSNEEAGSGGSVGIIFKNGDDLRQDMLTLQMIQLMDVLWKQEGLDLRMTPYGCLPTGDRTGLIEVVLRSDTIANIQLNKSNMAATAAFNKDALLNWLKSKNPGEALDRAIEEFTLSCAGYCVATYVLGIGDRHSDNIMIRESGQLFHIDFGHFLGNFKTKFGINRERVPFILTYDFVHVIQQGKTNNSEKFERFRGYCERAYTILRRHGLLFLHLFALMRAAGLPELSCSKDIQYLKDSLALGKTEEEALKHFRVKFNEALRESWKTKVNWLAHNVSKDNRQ
Chain of PI3Kδ (p110δ/p85α) Recombinant Human Protein (P27986 whole entry partner): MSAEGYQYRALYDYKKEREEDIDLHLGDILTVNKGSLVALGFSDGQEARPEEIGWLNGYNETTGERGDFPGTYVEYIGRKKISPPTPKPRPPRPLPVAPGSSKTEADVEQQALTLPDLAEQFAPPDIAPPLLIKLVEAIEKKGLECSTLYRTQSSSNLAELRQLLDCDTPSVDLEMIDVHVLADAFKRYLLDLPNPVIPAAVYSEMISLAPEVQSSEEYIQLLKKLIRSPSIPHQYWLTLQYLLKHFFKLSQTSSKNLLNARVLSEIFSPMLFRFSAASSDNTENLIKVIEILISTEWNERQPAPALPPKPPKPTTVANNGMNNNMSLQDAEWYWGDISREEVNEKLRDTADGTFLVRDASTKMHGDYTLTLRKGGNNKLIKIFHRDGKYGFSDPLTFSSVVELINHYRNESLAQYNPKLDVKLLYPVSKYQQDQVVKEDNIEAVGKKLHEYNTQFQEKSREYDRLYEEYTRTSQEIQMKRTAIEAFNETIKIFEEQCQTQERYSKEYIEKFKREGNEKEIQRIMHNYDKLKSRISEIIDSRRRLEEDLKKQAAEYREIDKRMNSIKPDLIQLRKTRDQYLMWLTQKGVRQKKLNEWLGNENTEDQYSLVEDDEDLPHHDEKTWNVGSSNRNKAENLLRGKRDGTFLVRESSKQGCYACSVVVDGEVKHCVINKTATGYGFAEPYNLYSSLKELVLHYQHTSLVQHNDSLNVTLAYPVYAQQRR
Procedure, shortened: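 Recombinant human p110δ/p85α was run at room temperature in 20 mM MOPS pH 6.7, 10 mM MgCl2, 5 mM DTT, 0.03% CHAPS, 2% DMSO. Substrates were 20 µM PIP2 and 2 µM ATP with [γ-33P]ATP. Product was captured overnight on WGA SPA beads and counted by scintillation; IC50 fitted from percent of solvent control versus log concentration.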

[3] = system: Phosphorylated Ribosomal Protein S6 (RPS6) in THP-1 cells; assay: THP-1 RPS6 ELISA assay; format: cell-based, Human; settings: serum starved, 2 h compound, 10 nM MCP-1 for 15 min, phospho-RPS6 ELISA, read-out: PI3Kγ_THP1_RPS6_ELISA IC50
Procedure, shortened: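 Phospho-RPS6 in lysates measured by ELISA at 450 nm, corrected at 540 nm, after MCP-1 challenge (10 nM, 15 min) of THP-1 cells that were starved overnight and exposed to test compound for 2 h at 37° C, 2×10^5 cells/well. Curve fit of percent inhibition gives IC50.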

[4] = Homo sapiens, THP-1, THP-1 cells

Chain of PI3Kγ (p110γ) Recombinant Human Protein (P48736 whole entry): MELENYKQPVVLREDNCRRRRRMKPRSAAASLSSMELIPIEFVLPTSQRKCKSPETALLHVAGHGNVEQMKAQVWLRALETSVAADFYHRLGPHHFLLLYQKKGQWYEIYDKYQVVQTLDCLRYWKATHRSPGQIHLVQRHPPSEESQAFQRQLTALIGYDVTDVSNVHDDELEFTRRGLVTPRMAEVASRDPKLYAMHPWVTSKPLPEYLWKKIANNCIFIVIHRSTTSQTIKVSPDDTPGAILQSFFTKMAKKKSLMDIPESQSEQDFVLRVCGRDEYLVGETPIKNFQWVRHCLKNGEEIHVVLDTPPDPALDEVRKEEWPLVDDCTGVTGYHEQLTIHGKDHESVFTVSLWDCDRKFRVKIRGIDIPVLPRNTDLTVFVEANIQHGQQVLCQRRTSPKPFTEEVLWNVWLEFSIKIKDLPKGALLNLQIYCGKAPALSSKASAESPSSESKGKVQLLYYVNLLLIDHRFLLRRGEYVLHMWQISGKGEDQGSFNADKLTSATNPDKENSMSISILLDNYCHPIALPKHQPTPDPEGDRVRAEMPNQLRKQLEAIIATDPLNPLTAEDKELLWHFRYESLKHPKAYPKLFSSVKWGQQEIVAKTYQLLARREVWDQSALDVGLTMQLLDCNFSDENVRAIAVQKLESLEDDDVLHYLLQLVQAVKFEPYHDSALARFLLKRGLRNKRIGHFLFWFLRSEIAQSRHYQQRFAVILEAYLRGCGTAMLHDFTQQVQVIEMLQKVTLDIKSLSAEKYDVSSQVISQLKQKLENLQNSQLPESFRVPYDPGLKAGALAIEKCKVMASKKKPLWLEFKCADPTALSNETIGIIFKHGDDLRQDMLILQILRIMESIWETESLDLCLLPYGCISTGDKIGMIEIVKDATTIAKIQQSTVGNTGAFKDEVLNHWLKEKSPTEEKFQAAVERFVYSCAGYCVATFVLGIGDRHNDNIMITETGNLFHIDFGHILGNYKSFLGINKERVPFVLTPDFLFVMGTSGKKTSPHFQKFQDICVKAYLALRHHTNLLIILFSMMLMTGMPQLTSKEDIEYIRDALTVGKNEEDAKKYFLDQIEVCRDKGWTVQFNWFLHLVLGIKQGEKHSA

Row | SMILES | IC50 [1] [nM] | IC50 ([2]; read-out: PI3Kδ IC50) [nM] | IC50 [3, 4] [nM] | IC50 ([3]; THP-1 cells) [nM] | IC50 ([2]; PI3Kδ IC50 (nM)) [nM]
1 | Cc1ccc(C(C)(O)C(F)F)cc1-c1cnc2c(N)nc(-c3ccnc(CO)c3)cn12 (single isomer, unassigned) [Example 44, 2-(3-(8-Amino-6-(2-(hydroxymethyl)pyridin-4-yl)imidazo[1,2-a]pyrazin-3-yl)-4-methylphenyl)-1,1-difluoropropan-2-ol] | < 100 | < 100 | < 100 |  | 
2 | Cc1ccc(C(O)(C(N)=O)C(F)(F)F)cc1-c1cnc2c(N)nc(C(=O)NC34CC(F)(C3)C4)cn12 (stereo not drawn) [Example 288, 8-Amino-3-(5-(3-amino-1,1,1-trifluoro-2-hydroxy-3-oxopropan-2-yl)-2-methylphenyl)-N-(3-fluorobicyclo[1.1.1]pentan-1-yl)imidazo[1,2-a]pyrazine-6-carboxamide trifluoroacetate salt] | < 100 | 100 to 500 | < 100 |  | 
3 | Cc1ccc(C(C)(O)C(F)(F)F)cc1-c1cnc2c(N)nc(C(F)(F)F)cn12 (single isomer, unassigned) [Example 5, 2-(3-(8-Amino-6-(trifluoromethyl)imidazo[1,2-a]pyrazin-3-yl)-4-methylphenyl)-1,1,1-trifluoropropan-2-ol] | < 100 | 100 to 500 |  | 500 to 1000 | 
4 | Cc1ccc(C(C)(O)C(F)F)cc1-c1cnc2c(N)nc(-c3cnn(C)c3C)cn12 (stereo not drawn) [Example 36, 2-(3-(8-Amino-6-(1,5-dimethyl-1H-pyrazol-4-yl)imidazo[1,2-a]pyrazin-3-yl)-4-methylphenyl)-1,1-difluoropropan-2-ol] | < 100 | < 100 | 100 to 500 |  | 
5 | Cc1ccc(C(C)(O)C(F)F)cc1-c1cnc2c(N)nc(C(F)(F)F)cn12 (single isomer, unassigned) [Example 27, 2-(3-(8-Amino-6-(trifluoromethyl)imidazo[1,2-a]pyrazin-3-yl)-4-methylphenyl)-1,1-difluoropropan-2-ol] | < 100 | 100 to 500 |  | 100 to 500 | 
6 | [2H]C([2H])([2H])NC(=O)C(O)(c1ccc(C)c(-c2cnc3c(N)nc(C(=O)NC(CC#N)C(F)(F)F)cn23)c1)C(F)(F)F (stereo not drawn) [Example 289, 8-Amino-N-(3-cyano-1,1,1-trifluoropropan-2-yl)-3-(2-methyl-5-(1,1,1-trifluoro-2-hydroxy-3-((methyl-d3)amino)-3-oxopropan-2-yl)phenyl)imidazo[1,2-a]pyrazine-6-carboxamide trifluoroacetate salt] | < 100 | 100 to 500 | < 100 |  | 
7 | CNC(=O)c1cn2c(-c3cc(C(C)(O)C(F)(F)F)ccc3C)cnc2c(N)n1 (stereo not drawn) [Example 9, 8-Amino-N-methyl-3-(2-methyl-5-(1,1,1-trifluoro-2-hydroxypropan-2-yl)phenyl)imidazo[1,2-a]pyrazine-6-carboxamide] | < 100 | 100 to 500 | 100 to 500 |  | 
8 | [2H]C([2H])([2H])c1ccc(C(C)(O)C(F)(F)F)cc1-c1cnc2c(N)nc(-c3cnn4c3CCC4)cn12 (stereo not drawn) [Example 87, 2-(3-(8-Amino-6-(5,6-dihydro-4H-pyrrolo[1,2-b]pyrazol-3-yl)imidazo[1,2-a]pyrazin-3-yl)-4-(methyl-d3)phenyl)-1,1,1-trifluoropropan-2-ol, trifluoroacetate] | < 100 | < 100 | 100 to 500 |  | 
9 | Cc1ccc(C(C)(O)C(F)(F)F)cc1-c1cnc2c(N)nc(-c3ccnc(CO)c3)cn12 (single isomer, unassigned) [Example 12, 2-(3-(8-amino-6-(2-(hydroxymethyl)pyridin-4-yl)imidazo[1,2-a]pyrazin-3-yl)-4-methylphenyl)-1,1,1-trifluoropropan-2-ol] | < 100 | < 100 |  | < 100 | 
10 | Cc1ccc(C(O)(C(N)=O)C(F)(F)F)cc1-c1cnc2c(N)nc(C(=O)NC3(C4CC4)CCOC3)cn12 (stereo not drawn) [Example 83, 8-Amino-3-(5-(3-amino-1,1,1-trifluoro-2-hydroxy-3-oxopropan-2-yl)-2-methylphenyl)-N-(3-cyclopropyltetrahydrofuran-3-yl)imidazo[1,2-a]pyrazine-6-carboxamide trifluoroacetate salt] | < 100 | 100 to 500 | < 100 |  | 
11 | CNCCC(O)(c1ccc(C)c(-c2cnc3c(N)nc(C(F)(F)F)cn23)c1)C(F)(F)F (stereo not drawn) [Example 14, 2-(3-(8-Amino-6-(trifluoromethyl)imidazo[1,2-a]pyrazin-3-yl)-4-methylphenyl)-1,1,1-trifluoro-4-(methylamino)butan-2-ol bis(2,2,2-trifluoroacetate)] | < 100 |  | < 100 |  | 100 to 500
12 | Cc1ccc(C(C)(O)C(F)(F)Cl)cc1-c1cnc2c(N)nc(C(F)(F)F)cn12 (stereo not drawn) [Example 268, 2-(3-(8-Amino-6-(trifluoromethyl)imidazo[1,2-a]pyrazin-3-yl)-4-methylphenyl)-1-chloro-1,1-difluoropropan-2-ol] | < 100 | 100 to 500 | 100 to 500 |  | 
13 | Cc1ccc(C(O)(C(=O)NC23CC(C2)C3)C(F)(F)F)cc1-c1cnc2c(N)nc(C(F)(F)F)cn12 (stereo not drawn) [Example 129, 2-(3-(8-Amino-6-(trifluoromethyl)imidazo[1,2-a]pyrazin-3-yl)-4-methylphenyl)-N-(bicyclo[1.1.1]pentan-1-yl)-3,3,3-trifluoro-2-hydroxypropanamide trifluoroacetate salt] | < 100 | < 100 | < 100 |  | 
14 | Cc1ccc(C(C)(O)C(F)(F)F)cc1-c1cnc2c(N)nc(-c3ccnc(CO)c3)cn12 (stereo not drawn) [Example 10, 2-(3-(8-Amino-6-(2-(hydroxymethyl)pyridin-4-yl)imidazo[1,2-a]pyrazin-3-yl)-4-methylphenyl)-1,1,1-trifluoropropan-2-ol] | < 100 | < 100 | 100 to 500 |  | 
15 | Cc1ccc(C(C)(O)C(F)(F)C(F)(F)F)cc1-c1cnc2c(N)nc(C(F)(F)F)cn12 (single isomer, unassigned) [Example 60, 2-(3-(8-Amino-6-(trifluoromethyl)imidazo[1,2-a]pyrazin-3-yl)-4-methylphenyl)-3,3,4,4,4-pentafluorobutan-2-ol] | < 100 | 500 to 2000 | > 1000 |  | 
16 | Cc1ccc(C(O)(C(N)=O)C(F)F)cc1-c1cnc2c(N)nc(C(F)(F)F)cn12 (stereo not drawn) [Example 89, 2-(3-(8-Amino-6-(trifluoromethyl)imidazo[1,2-a]pyrazin-3-yl)-4-methylphenyl)-3,3-difluoro-2-hydroxypropanamide] | < 100 | < 100 | < 100 |  | 
17 | Cc1ccc(C(O)(C(N)=O)C(F)(F)F)cc1-c1cnc2c(N)nc(C(=O)NC3(C)CCOC3C)cn12 (stereo not drawn) [Example 84, 8-Amino-3-(5-(3-amino-1,1,1-trifluoro-2-hydroxy-3-oxopropan-2-yl)-2-methylphenyl)-N-(2,3-dimethyltetrahydrofuran-3-yl)imidazo[1,2-a]pyrazine-6-carboxamide, trifluoroacetate] | < 100 | 100 to 500 | 100 to 500 |  | 
18 | [2H]C([2H])([2H])c1ccc(C(C)(O)C(F)(F)F)cc1-c1cnc2c(N)nc(-c3cnn(C4(CC#N)CC(C(=O)OC)C4)c3)cn12 (stereo not drawn) [Example 88, Methyl 3-(4-(8-amino-3-(2-(methyl-d3)-5-(1,1,1-trifluoro-2-hydroxypropan-2-yl)phenyl)imidazo[1,2-a]pyrazin-6-yl)-1H-pyrazol-1-yl)-3-(cyanomethyl)cyclobutane-1-carboxylate, trifluoroacetate] | < 100 | 100 to 500 | 100 to 500 |  | 
19 | CNCCC(O)(c1ccc(C)c(-c2cnc3c(N)nc(C(F)(F)F)cn23)c1)C(F)(F)F (single isomer, unassigned) [Example 16, 2-(3-(8-Amino-6-(trifluoromethyl)imidazo[1,2-a]pyrazin-3-yl)-4-methylphenyl)-1,1,1-trifluoro-4-(methylamino)butan-2-ol] | < 100 | 100 to 500 |  | 500 to 1000 | 
20 | Cc1ccc(C(C)(O)C(F)(F)F)cc1-c1cnc2c(N)nc(C(=O)NCC3(C#N)CCC3)cn12 (stereo not drawn) [Example 283, 8-Amino-N-((1-cyanocyclobutyl)methyl)-3-(2-methyl-5-(1,1,1-trifluoro-2-hydroxypropan-2-yl)phenyl)imidazo[1,2-a]pyrazine-6-carboxamide trifluoroacetate salt] | < 100 | < 100 | > 1000 |  | 
21 | CNC(=O)C(O)(c1ccc(C)c(-c2cnc3c(N)nc(C(F)(F)F)cn23)c1)C(F)(F)F (stereo not drawn) [Example 118, 2-(3-(8-Amino-6-(trifluoromethyl)imidazo[1,2-a]pyrazin-3-yl)-4-methylphenyl)-3,3,3-trifluoro-2-hydroxy-N-methylpropanamide] | < 100 | < 100 | < 100 |  | 
